# Source: ChEMBL document CHEMBL1781873, “Synthesis and antibacterial property of pyrrolopyrano quinolinones and pyrroloquinolines” (2011)
# Calls of active or inactive are those of the source. No cut-off for these calls is given here.
# Key:
# [1] = system: Escherichia coli; test: Inhibition of Escherichia coli DNA gyrase -mediated DNA relaxation using pBR322 DNA as substrate at […] after 1 hrs by agarose gel electrophoresis
# [2] = system: Bacillus subtilis; test: Antibacterial activity against Bacillus subtilis at 20 ug after 24 hrs by disc diffusion assay; assay type: functional; details: read-out: IZ
# [3] = system: Pseudomonas aeruginosa; test: Antibacterial activity against Pseudomonas aeruginosa at 15 ug after 24 hrs by disc diffusion assay; assay type: functional; details: read-out: IZ
# [4] = system: Klebsiella pneumoniae; test: Antibacterial activity against Klebsiella pneumoniae at 20 ug after 24 hrs by disc diffusion assay; assay type: functional; details: read-out: IZ
# [5] = system: Salmonella typhi; test: Antibacterial activity against Salmonella typhi at 15 ug after 24 hrs by disc diffusion assay; assay type: functional, Salmonella enterica subsp. enterica serovar Typhi; details: Salmonella enterica, read-out: IZ
# [6] = system: Escherichia coli; test: Antibacterial activity against Escherichia coli at 10 ug after 24 hrs by disc diffusion assay; assay type: functional; details: read-out: IZ
# [7] = system: Klebsiella pneumoniae; test: Antibacterial activity against Klebsiella pneumoniae at 10 ug after 24 hrs by disc diffusion assay; assay type: functional; details: read-out: IZ
# [8] = system: Escherichia coli; test: Antibacterial activity against Escherichia coli at 5 ug after 24 hrs by disc diffusion assay; assay type: functional; details: read-out: IZ
# [9] = system: Bacillus subtilis; test: Antibacterial activity against Bacillus subtilis at 10 ug after 24 hrs by disc diffusion assay; assay type: functional; details: read-out: IZ
# [10] = system: Salmonella typhi; test: Antibacterial activity against Salmonella typhi at 20 ug after 24 hrs by disc diffusion assay; assay type: functional, Salmonella enterica subsp. enterica serovar Typhi; details: Salmonella enterica, read-out: IZ
# [11] = system: Pseudomonas aeruginosa; test: Antibacterial activity against Pseudomonas aeruginosa at 25 ug after 24 hrs by disc diffusion assay; assay type: functional; details: read-out: IZ
# [12] = system: Escherichia coli; test: Antibacterial activity against Escherichia coli at 20 ug after 24 hrs by disc diffusion assay; assay type: functional; details: read-out: IZ
# [13] = system: Staphylococcus aureus; test: Antibacterial activity against Staphylococcus aureus at 5 ug after 24 hrs by disc diffusion assay; assay type: functional; details: read-out: IZ
# [14] = system: Klebsiella pneumoniae; test: Antibacterial activity against Klebsiella pneumoniae at 25 ug after 24 hrs by disc diffusion assay; assay type: functional; details: read-out: IZ
# [15] = system: Salmonella typhi; test: Antibacterial activity against Salmonella typhi at 5 ug after 24 hrs by disc diffusion assay; assay type: functional, Salmonella enterica subsp. enterica serovar Typhi; details: Salmonella enterica, read-out: IZ
# [16] = system: Bacillus subtilis; test: Antibacterial activity against Bacillus subtilis after 18 to 20 hrs by broth micro dilution assay; assay type: functional
# [17] = system: Klebsiella pneumoniae; test: Antibacterial activity against Klebsiella pneumoniae at 15 ug after 24 hrs by disc diffusion assay; assay type: functional; details: read-out: IZ
# [18] = system: Escherichia coli; test: Antibacterial activity against Escherichia coli after 18 to 20 hrs by broth micro dilution assay; assay type: functional
# [19] = system: Bacillus subtilis; test: Antibacterial activity against Bacillus subtilis at 15 ug after 24 hrs by disc diffusion assay; assay type: functional; details: read-out: IZ
# [20] = system: Pseudomonas aeruginosa; test: Antibacterial activity against Pseudomonas aeruginosa at 10 ug after 24 hrs by disc diffusion assay; assay type: functional; details: read-out: IZ
# [21] = system: Staphylococcus aureus; test: Antibacterial activity against Staphylococcus aureus after 18 to 20 hrs by broth micro dilution assay; assay type: functional
# [22] = system: Escherichia coli; test: Inhibition of DNA gyrase mRNA expression in Escherichia coli measured up to 24 hrs by RT-PCR; assay type: functional, organism-based
# [23] = system: Klebsiella pneumoniae; test: Antibacterial activity against Klebsiella pneumoniae after 18 to 20 hrs by broth micro dilution assay; assay type: functional
# [24] = system: Escherichia coli; test: Antibacterial activity against Escherichia coli at 25 ug after 24 hrs by disc diffusion assay; assay type: functional; details: read-out: IZ
# [25] = system: Escherichia coli; test: Inhibition of Escherichia coli DNA gyrase assessed as inhibition of DNA supercoiling activity using pBR322 DNA as substrate at […] after 3 hrs by agarose gel electrophoresis
# [26] = system: Staphylococcus aureus; test: Antibacterial activity against Staphylococcus aureus at 15 ug after 24 hrs by disc diffusion assay; assay type: functional; details: read-out: IZ
# [27] = system: Pseudomonas aeruginosa; test: Antibacterial activity against Pseudomonas aeruginosa at 20 ug after 24 hrs by disc diffusion assay; assay type: functional; details: read-out: IZ
# [28] = system: Escherichia coli; test: Antibacterial activity against Escherichia coli at 15 ug after 24 hrs by disc diffusion assay; assay type: functional; details: read-out: IZ
# [29] = system: Pseudomonas aeruginosa; test: Antibacterial activity against Pseudomonas aeruginosa after 18 to 20 hrs by broth micro dilution assay; assay type: functional
# [30] = system: Klebsiella pneumoniae; test: Antibacterial activity against Klebsiella pneumoniae at 5 ug after 24 hrs by disc diffusion assay; assay type: functional; details: read-out: IZ
# [31] = system: Staphylococcus aureus; test: Antibacterial activity against Staphylococcus aureus at 20 ug after 24 hrs by disc diffusion assay; assay type: functional; details: read-out: IZ
# [32] = system: Pseudomonas aeruginosa; test: Antibacterial activity against Pseudomonas aeruginosa at 5 ug after 24 hrs by disc diffusion assay; assay type: functional; details: read-out: IZ
# [33] = system: Salmonella typhi; test: Antibacterial activity against Salmonella typhi at 25 ug after 24 hrs by disc diffusion assay; assay type: functional, Salmonella enterica subsp. enterica serovar Typhi; details: Salmonella enterica, read-out: IZ
# [34] = system: Salmonella typhi; test: Antibacterial activity against Salmonella typhi at 10 ug after 24 hrs by disc diffusion assay; assay type: functional, Salmonella enterica subsp. enterica serovar Typhi; details: Salmonella enterica, read-out: IZ
# [35] = system: Salmonella typhi; test: Antibacterial activity against Salmonella typhi after 18 to 20 hrs by broth micro dilution assay; assay type: functional, Salmonella enterica subsp. enterica serovar Typhi; details: Salmonella enterica
# [36] = system: Staphylococcus aureus; test: Antibacterial activity against Staphylococcus aureus at 25 ug after 24 hrs by disc diffusion assay; assay type: functional; details: read-out: IZ
# [37] = system: Bacillus subtilis; test: Antibacterial activity against Bacillus subtilis at 25 ug after 24 hrs by disc diffusion assay; assay type: functional; details: read-out: IZ
# [38] = system: Staphylococcus aureus; test: Antibacterial activity against Staphylococcus aureus at 10 ug after 24 hrs by disc diffusion assay; assay type: functional; details: read-out: IZ
smiles,measurement,setting,value
CCC1[C@@H]2Nc3ccc(Cl)cc3C(c3ccccc3)[C@H]2CN1OS(=O)(=O)c1ccc(C)cc1 (stereo partly drawn),inhibition,[1],Active
same,zone of inhibition at 20 µg/disc,[2],10 mm
same,zone of inhibition at 15 µg/disc,[3],17 mm
same,zone of inhibition at 20 µg/disc,[4],34 mm
same,zone of inhibition at 15 µg/disc,[5],18 mm
same,zone of inhibition at 10 µg/disc,[6],16 mm
same,zone of inhibition at 10 µg/disc,[7],26 mm
same,zone of inhibition at 5 µg/disc,[8],10 mm
same,zone of inhibition at 10 µg/disc,[9],7 mm
same,zone of inhibition at 20 µg/disc,[10],20 mm
same,zone of inhibition at 25 µg/disc,[11],24 mm
same,zone of inhibition at 20 µg/disc,[12],20 mm
same,zone of inhibition at 5 µg/disc,[13],9 mm
same,zone of inhibition at 25 µg/disc,[14],36 mm
same,zone of inhibition at 5 µg/disc,[15],10 mm
same,MIC50,[16],128 µg/mL
same,MIC90,[16],128 µg/mL
same,zone of inhibition at 15 µg/disc,[17],30 mm
same,MIC50,[18],128 µg/mL
same,MIC90,[18],128 µg/mL
same,zone of inhibition at 15 µg/disc,[19],9 mm
same,zone of inhibition at 10 µg/disc,[20],16 mm
same,MIC50,[21],128 µg/mL
same,MIC90,[21],128 µg/mL
same,inhibition of gyrase mRNA expression (active/not active),[22],Active
same,MIC50,[23],128 µg/mL
same,MIC90,[23],128 µg/mL
same,zone of inhibition at 25 µg/disc,[24],23 mm
same,DNA gyrase inhibition (active/inactive),[25],Active
same,zone of inhibition at 15 µg/disc,[26],13 mm
same,zone of inhibition at 20 µg/disc,[27],22 mm
same,zone of inhibition at 15 µg/disc,[28],18 mm
same,MIC50,[29],128 µg/mL
same,MIC90,[29],128 µg/mL
same,zone of inhibition at 5 µg/disc,[30],20 mm
same,zone of inhibition at 20 µg/disc,[31],14 mm
same,zone of inhibition at 5 µg/disc,[32],10 mm
same,zone of inhibition at 25 µg/disc,[33],22 mm
same,zone of inhibition at 10 µg/disc,[34],16 mm
same,MIC50,[35],128 µg/mL
same,MIC90,[35],128 µg/mL
same,zone of inhibition at 25 µg/disc,[36],17 mm
same,zone of inhibition at 25 µg/disc,[37],12 mm
same,zone of inhibition at 10 µg/disc,[38],12 mm
CCC1[C@@H]2c3c(c4ccccc4n(C)c3=O)OC(C)(C)[C@H]2CN1OS(=O)(=O)c1ccc(C)cc1 (mixture of isomers),inhibition,[1],Active
same,zone of inhibition at 20 µg/disc,[2],10 mm
same,zone of inhibition at 15 µg/disc,[3],17 mm
same,zone of inhibition at 20 µg/disc,[4],34 mm
same,zone of inhibition at 15 µg/disc,[5],18 mm
same,zone of inhibition at 10 µg/disc,[6],16 mm
same,zone of inhibition at 10 µg/disc,[7],26 mm
same,zone of inhibition at 5 µg/disc,[8],10 mm
same,zone of inhibition at 10 µg/disc,[9],7 mm
same,zone of inhibition at 20 µg/disc,[10],20 mm
same,zone of inhibition at 25 µg/disc,[11],24 mm
same,zone of inhibition at 20 µg/disc,[12],20 mm
same,zone of inhibition at 5 µg/disc,[13],9 mm
same,zone of inhibition at 25 µg/disc,[14],36 mm
same,zone of inhibition at 5 µg/disc,[15],10 mm
same,MIC50,[16],0.5 µg/mL
same,MIC90,[16],0.5 µg/mL
same,zone of inhibition at 15 µg/disc,[17],30 mm
same,MIC50,[18],0.5 µg/mL
same,MIC90,[18],1 µg/mL
same,zone of inhibition at 15 µg/disc,[19],9 mm
same,zone of inhibition at 10 µg/disc,[20],16 mm
same,MIC50,[21],0.5 µg/mL
same,MIC90,[21],0.5 µg/mL
same,inhibition of gyrase mRNA expression (active/not active),[22],Active
same,MIC50,[23],0.5 µg/mL
same,MIC90,[23],0.5 µg/mL
same,zone of inhibition at 25 µg/disc,[24],23 mm
same,DNA gyrase inhibition (active/inactive),[25],Active
same,zone of inhibition at 15 µg/disc,[26],13 mm
same,zone of inhibition at 20 µg/disc,[27],22 mm
same,zone of inhibition at 15 µg/disc,[28],18 mm
same,MIC50,[29],0.5 µg/mL
same,MIC90,[29],0.5 µg/mL
same,zone of inhibition at 5 µg/disc,[30],20 mm
same,zone of inhibition at 20 µg/disc,[31],14 mm
same,zone of inhibition at 5 µg/disc,[32],10 mm
same,zone of inhibition at 25 µg/disc,[33],22 mm
same,zone of inhibition at 10 µg/disc,[34],16 mm
same,MIC50,[35],0.5 µg/mL
same,MIC90,[35],0.5 µg/mL
same,zone of inhibition at 25 µg/disc,[36],17 mm
same,zone of inhibition at 25 µg/disc,[37],12 mm
same,zone of inhibition at 10 µg/disc,[38],12 mm
